In article PMC7071731 (Journal of molecular biology, 2019):
Substitutions are numbered along the chain they refer to. Names and notes keep the numbering of the source.

Legend:
AcrB [1] = molecular target: AcrB (Escherichia coli, UniProt P31224, I27A); experiment: ITC; format: binding
AcrB [2] = molecular target: AcrB (Escherichia coli, UniProt P31224, V340A); experiment: ITC; format: binding
AcrB [3] = molecular target: AcrB (Escherichia coli, UniProt P31224, N298A); experiment: ITC; format: binding
AcrB [4] = molecular target: AcrB (Escherichia coli, UniProt P31224); experiment: ITC; format: binding
Chain of AcrB (Escherichia coli, UniProt P31224) (P31224 whole entry): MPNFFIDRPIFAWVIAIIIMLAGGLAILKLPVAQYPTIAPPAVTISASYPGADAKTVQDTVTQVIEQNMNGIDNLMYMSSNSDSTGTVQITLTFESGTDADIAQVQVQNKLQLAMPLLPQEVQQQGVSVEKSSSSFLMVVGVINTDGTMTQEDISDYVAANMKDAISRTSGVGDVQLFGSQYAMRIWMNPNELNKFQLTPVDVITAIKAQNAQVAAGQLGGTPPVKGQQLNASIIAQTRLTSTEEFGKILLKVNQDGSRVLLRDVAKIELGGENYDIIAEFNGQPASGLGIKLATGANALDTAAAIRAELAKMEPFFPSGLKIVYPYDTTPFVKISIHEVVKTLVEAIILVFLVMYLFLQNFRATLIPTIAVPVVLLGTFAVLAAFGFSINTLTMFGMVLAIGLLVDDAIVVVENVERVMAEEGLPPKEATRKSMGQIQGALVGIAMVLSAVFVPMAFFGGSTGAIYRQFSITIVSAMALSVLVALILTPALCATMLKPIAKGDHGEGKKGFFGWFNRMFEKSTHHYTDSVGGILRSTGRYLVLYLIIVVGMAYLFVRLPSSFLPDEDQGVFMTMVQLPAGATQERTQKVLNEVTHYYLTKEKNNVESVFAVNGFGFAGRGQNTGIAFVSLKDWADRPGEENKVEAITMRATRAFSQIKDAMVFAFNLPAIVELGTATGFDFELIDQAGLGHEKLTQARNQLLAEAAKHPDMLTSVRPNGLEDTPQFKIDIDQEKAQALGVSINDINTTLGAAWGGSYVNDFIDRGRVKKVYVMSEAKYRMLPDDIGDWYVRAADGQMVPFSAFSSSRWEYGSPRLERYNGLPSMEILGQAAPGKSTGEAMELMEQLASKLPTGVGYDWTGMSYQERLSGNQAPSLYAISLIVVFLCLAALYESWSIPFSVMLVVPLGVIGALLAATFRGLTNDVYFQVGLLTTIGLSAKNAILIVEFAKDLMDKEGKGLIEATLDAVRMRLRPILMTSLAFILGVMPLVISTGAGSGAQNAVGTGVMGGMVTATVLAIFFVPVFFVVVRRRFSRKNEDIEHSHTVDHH

crystal structure = molecular target: the molecule itself; experiment: crystal structure

Chain of AcrB (Escherichia coli, UniProt P31224, V340A) (P31224 whole entry V340A): as the sequence (P31224 whole entry) above, with V340A counted along it
Chain of AcrB (Escherichia coli, UniProt P31224, I27A) (P31224 whole entry I27A): as the sequence (P31224 whole entry) above, with I27A counted along it

## CC(=O)O[C@H]1C[C@@]2(C)[C@@H](C[C@@H](O)[C@H]3[C@@]4(C)CC[C@@H](O)[C@@H](C)[C@@H]4CC[C@@]32C)/C1=C(\CCC=C(C)C)C(=O)O [FUA, fusidic acid]
AcrB [1]
  Kd: 405 ± 6.6 µM
AcrB [2]
  Kd: 826.5 ± 4.8 µM
AcrB [3]
  Kd: 1120 ± 18.2 µM
AcrB [4]
  Kd: 528 ± 8.6 µM

B1: AcrB-N298A (natural protein)
chain: MPNFFIDRPIFAWVIAIIIMLAGGLAILKLPVAQYPTIAPPAVTISASYPGADAKTVQDTVTQVIEQNMNGIDNLMYMSSNSDSTGTVQITLTFESGTDADIAQVQVQNKLQLAMPLLPQEVQQQGVSVEKSSSSFLMVVGVINTDGTMTQEDISDYVAANMKDAISRTSGVGDVQLFGSQYAMRIWMNPNELNKFQLTPVDVITAIKAQNAQVAAGQLGGTPPVKGQQLNASIIAQTRLTSTEEFGKILLKVNQDGSRVLLRDVAKIELGGENYDIIAEFNGQPASGLGIKLATGAAALDTAAAIRAELAKMEPFFPSGLKIVYPYDTTPFVKISIHEVVKTLVEAIILVFLVMYLFLQNFRATLIPTIAVPVVLLGTFAVLAAFGFSINTLTMFGMVLAIGLLVDDAIVVVENVERVMAEEGLPPKEATRKSMGQIQGALVGIAMVLSAVFVPMAFFGGSTGAIYRQFSITIVSAMALSVLVALILTPALCATMLKPIAKGDHGEGKKGFFGWFNRMFEKSTHHYTDSVGGILRSTGRYLVLYLIIVVGMAYLFVRLPSSFLPDEDQGVFMTMVQLPAGATQERTQKVLNEVTHYYLTKEKNNVESVFAVNGFGFAGRGQNTGIAFVSLKDWADRPGEENKVEAITMRATRAFSQIKDAMVFAFNLPAIVELGTATGFDFELIDQAGLGHEKLTQARNQLLAEAAKHPDMLTSVRPNGLEDTPQFKIDIDQEKAQALGVSINDINTTLGAAWGGSYVNDFIDRGRVKKVYVMSEAKYRMLPDDIGDWYVRAADGQMVPFSAFSSSRWEYGSPRLERYNGLPSMEILGQAAPGKSTGEAMELMEQLASKLPTGVGYDWTGMSYQERLSGNQAPSLYAISLIVVFLCLAALYESWSIPFSVMLVVPLGVIGALLAATFRGLTNDVYFQVGLLTTIGLSAKNAILIVEFAKDLMDKEGKGLIEATLDAVRMRLRPILMTSLAFILGVMPLVISTGAGSGAQNAVGTGVMGGMVTATVLAIFFVPVFFVVVRRRFSRKNEDIEHSHTVDHH
Crystal structure
  binding result: binds

B2: AcrB-I27A (natural protein)
chain: B1 chain with I27A, A298N
Crystal structure
  binding result: binds

B3: AcrB-V340A (natural protein)
chain: B1 chain with A298N, V340A
Crystal structure
  binding result: binds
